Experimental data as given in US8008491B2, “Substituted AZA-indoles as inhibitors of poly(ADP-ribose) polymerase (PARP)” (Aventis Pharmaceuticals, Inc., priority 2003, dated 2011).
Where a name gives a salt, the structure may show the parent alone.

Biological target: human PARP (PARP1) (Homo sapiens, UniProt P09874)
Assay: PARP enzyme assay of Table 3 (radioactive enzyme assay or 'ELISA' enzyme assay);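 note: Baculovirus-expressed PARP1 from insect cells, activity read as tritium from labeled NAD in acid-precipitated protein, or as biotin-NAD built into plate-bound histone by absorbance at 450 nm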
Conditions: IC50 (μM), fifty percent inhibitory concentration; recombinant human PARP
Procedure: The compounds of this invention are then tested with this enzyme preparation using either the radioactive enzyme assay or by the “ELISA” enzyme assay as set forth below.
Incorporation of radioactivity from labeled NAD into acid-precipitated protein is measured. The reaction mixture (volume 100 μL or 50 μL, in a test-tube or 96-well plate) contained 100 μg/mL calf thymus DNA (sonicated), 100 μg/mL histones, 100 mM Tris (pH 8.0), 1.0 mM DTT, 10 mM MgCl2, NAD (200 μm, 0.65 microcurie/mL), and varying amounts of enzyme. The reaction was incubated for 10 min at 37° C. or at room temperature for 60 min. The reaction was stopped and protein precipitated by addition of ice-cold trichloroacetic acid (TCA; 10% or 20% aqueous w/v). After brief storage in ice or at 4° C. for 2 hrs, the reaction mixture is filtered under vacuum through a glass fiber filter (2.5 cm disc, or 96-well filter plate). After washing with TCA and ethanol, the filter is dried and counted for tritium CPM after addition of scintillation fluid.
Incorporation of biotin-NAD into histone coated on plate is measured. A 96-well protein-binding EIA plate is coated with histone and blocked with bovine serum albumin. The reaction mixture (50 μL) contained DNA, buffer, enzyme, (test compound), and 250 μM of NAD and 5 μL of biotin-NAD (Trevigen). After reaction at room temperature the wells are washed and treated with Extravidin (Sigma). After incubation and washing color is developed with the peroxidase substrate TMB (Sigma). The TMB reaction is quenched with 2M sulfurric acid and the absorbance at 450 nm is read.

Sequence of human PARP (PARP1) (P09874 whole entry): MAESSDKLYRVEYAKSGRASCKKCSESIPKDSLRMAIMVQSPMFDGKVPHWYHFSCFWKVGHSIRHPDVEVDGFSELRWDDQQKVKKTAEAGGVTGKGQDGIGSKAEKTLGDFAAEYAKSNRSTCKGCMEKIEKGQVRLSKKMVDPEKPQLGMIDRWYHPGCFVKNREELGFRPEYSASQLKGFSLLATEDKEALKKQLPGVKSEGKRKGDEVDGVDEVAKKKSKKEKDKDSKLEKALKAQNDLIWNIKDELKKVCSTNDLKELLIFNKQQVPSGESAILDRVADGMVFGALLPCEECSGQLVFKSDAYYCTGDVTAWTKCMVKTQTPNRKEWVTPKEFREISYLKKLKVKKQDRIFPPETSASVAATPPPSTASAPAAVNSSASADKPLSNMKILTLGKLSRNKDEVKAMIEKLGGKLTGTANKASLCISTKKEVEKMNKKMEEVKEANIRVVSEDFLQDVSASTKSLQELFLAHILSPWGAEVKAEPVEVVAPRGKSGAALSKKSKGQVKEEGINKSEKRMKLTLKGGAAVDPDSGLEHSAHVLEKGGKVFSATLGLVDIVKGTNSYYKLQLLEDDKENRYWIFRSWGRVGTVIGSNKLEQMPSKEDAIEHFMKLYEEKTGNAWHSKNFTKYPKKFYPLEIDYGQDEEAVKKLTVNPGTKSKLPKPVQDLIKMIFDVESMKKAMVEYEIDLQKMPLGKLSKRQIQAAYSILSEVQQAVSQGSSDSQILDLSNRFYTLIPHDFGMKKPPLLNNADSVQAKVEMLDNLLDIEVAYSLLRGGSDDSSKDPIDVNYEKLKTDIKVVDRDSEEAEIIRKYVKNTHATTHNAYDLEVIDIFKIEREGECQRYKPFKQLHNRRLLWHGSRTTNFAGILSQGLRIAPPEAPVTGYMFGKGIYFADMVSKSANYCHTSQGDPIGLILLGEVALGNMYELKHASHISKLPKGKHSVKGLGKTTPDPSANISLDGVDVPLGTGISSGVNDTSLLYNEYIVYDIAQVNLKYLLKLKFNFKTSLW

IC50	SMILES
15.1 µM	O=Cc1c(N2CCSCC2)n(-c2ccccc2)c2ccccc12 [Example 1, 1-Phenyl-2-(thiomorphin-4-yl)-1H-indole-3-carboxaldehyde]
2.5 µM	O=Cc1c(N2CCNCC2)n(-c2cccc([N+](=O)[O-])c2)c2ccccc12 [Example 11B-1, 2-(Piperazin-1-yl)-1-(3-nitrophenyl)-1H-indole-3-carboxaldehyde]
4 µM	O=Cc1c(N2CCNCC2)n(-c2cccc3ccccc23)c2ccccc12 [Example 11B-2, 2-(Piperazin-1-yl)-1-(1-naphthyl)-1H-indole-3-carboxaldehyde]
4.5 µM	COc1ccc(-n2c(N3CCNCC3)c(C=O)c3ccccc32)cc1 [Example 11B-3, 2-(Piperazin-1-yl)-1-(4-methoxyphenyl)-1H-indole-3-carboxaldehyde]
10 µM	CC(C)(C)c1ccc(-n2c(N3CCNCC3)c(C=O)c3ccccc32)cc1 [Example 11B-4, 2-(Piperazin-1-yl)-1-(4-tert-butylphenyl)-1H-indole-3-carboxaldehyde]
3 µM	O=Cc1c(N2CCNCC2)n(-c2ccc(Br)cc2)c2ccccc12 [Example 11B-5, 2-(Piperazin-1-yl)-1-(4-bromophenyl)-1H-indole-3-carboxaldehyde]
4 µM	O=Cc1c(N2CCNCC2)n(-c2ccc(Cl)cc2)c2ccccc12 [Example 11B-6, 2-(Piperazin-1-yl)-1-(4-chlorophenyl)-1H-indole-3-carboxaldehyde]
4 µM	O=Cc1c(N2CCNCC2)n(-c2ccc(F)c(Cl)c2)c2ccccc12 [Example 11B-7, 2-(Piperazin-1-yl)-1-(3-chloro-4-fluorophenyl)-1H-indole-3-carboxaldehyde]
5.5 µM	COc1cccc(-n2c(N3CCNCC3)c(C=O)c3ccccc32)c1 [Example 11B-8, 2-(Piperazin-1-yl)-1-(3-methoxyphenyl)-1H-indole-3-carboxaldehyde]
4 µM	CSc1ccc(-n2c(N3CCNCC3)c(C=O)c3ccccc32)cc1 [Example 11B-9, 2-(Piperazin-1-yl)-1-(4-thiomethylphenyl)-1H-indole-3-carboxaldehyde]
2.5 µM	O=Cc1c(N2CCNCC2)n(-c2cccc(F)c2)c2ccccc12 [Example 11B-10, 2-(Piperazin-1-yl)-1-(3-fluorophenyl)-1H-indole-3-carboxaldehyde]
3 µM	Cc1cccc(-n2c(N3CCNCC3)c(C=O)c3ccccc32)c1 [Example 11B-11, 2-(Piperazin-1-yl)-1-(3-methylphenyl)-1H-indole-3-carboxaldehyde]
3 µM	O=Cc1c(N2CCNCC2)n(-c2cccnc2)c2ccccc12 [Example 13, 2-(Piperazin-1-yl)-1-(pyridin-3-yl)-1H-indole-3-carboxaldehyde]
8.8 µM	CC(C)(C)OC(=O)NCCN1CCN(c2c(C=O)c3ccccc3n2-c2ccccc2)CC1 [Example 19]
5.1 µM	O=Cc1c(N2CC3CC2CN3)n(-c2ccccc2)c2ccccc12 (centres unmarked) [Example 21]
4.5 µM	O=Cc1c(N2CCCNCC2)n(-c2ccccc2)c2ccccc12 [Example 22, 2-[1,4]Diazepan-1-yl-1-phenyl-1H-indole-3-carboxaldehyde]
43.1 µM	O=Cc1c(N2CCN(CCO)CC2)n(-c2ccccc2)c2ccccc12 [Example 41, 2-[4-(2-Hydroxethyl)piperazin-1-yl]-1-phenyl-1H-indole-3-carboxaldehyde Hydrochloride]
11.4 µM	O=Cc1c(N2CCOCC2)n(-c2ccccc2)c2ccccc12 [Example 43, 2-(Morpholin-4-yl)-1-phenyl-1H-indole-3-carboxaldehyde]
5.1 µM	CC(C)(C)OC(=O)N1CC2CC1CN2c1c(C=O)c2ccccc2n1-c1ccccc1 (centres unmarked) [Example 45, 5-(3-Formyl-1-phenyl-1H-indol-2yl)-2,5-diazabicyclo[2.2.1]heptane-2-carboxylic acid tert-butyl ester]
0.85 µM	O=Cc1cccc(-n2c(N3CCNCC3)c(C=O)c3ccccc32)c1 [Example 46]
